The source of these data is ChEMBL document CHEMBL5126517, “Structure-Activity Relationship in the Leucettine Family of Kinase Inhibitors” (J Med Chem, 2022).

The source made the active and inactive calls.

The target in series [1] is T1, Cannabinoid receptor 1 (Homo sapiens, UniProt P21554). As to the kind of experiment: Displacement of [3H]-CP55940 from CB1 receptor (unknown origin) expressed in HEK293 cell membrane assessed as dissociation constant at 10 uM by liquid scintillation counting method. The format is cell membranes. The settings on record: filed as modulator. Background: Displacement assays read how much labelled ligand stays bound in the presence of the test substance.
T1 sequence (P21554 whole entry): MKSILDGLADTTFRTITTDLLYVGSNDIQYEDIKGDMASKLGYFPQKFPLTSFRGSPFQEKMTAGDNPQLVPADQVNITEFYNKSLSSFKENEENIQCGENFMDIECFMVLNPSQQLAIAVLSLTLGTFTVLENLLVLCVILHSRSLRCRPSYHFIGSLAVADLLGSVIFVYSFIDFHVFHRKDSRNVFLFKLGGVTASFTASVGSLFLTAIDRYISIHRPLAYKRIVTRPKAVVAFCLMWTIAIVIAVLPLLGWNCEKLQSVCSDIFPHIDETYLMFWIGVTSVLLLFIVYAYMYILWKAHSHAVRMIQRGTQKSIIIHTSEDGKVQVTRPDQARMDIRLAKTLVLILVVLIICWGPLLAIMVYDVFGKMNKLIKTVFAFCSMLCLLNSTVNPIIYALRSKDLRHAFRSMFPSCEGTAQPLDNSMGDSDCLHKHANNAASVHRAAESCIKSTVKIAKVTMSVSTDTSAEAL

Series [2] concerns HT-22. As to the kind of experiment: Induction of PI3K/mTor-dependent autophagy in mouse HT-22 cells assessed as number of LC3 foci per cell at 10 uM incubated for 24 hrs using Anti-LC3 staining based immunofluorescence microscopy. The settings on record: filed as activator.
For series [3], the system named is HT-22. The series is described as follows: Modulation of CLK1 pre-mRNA splicing in mouse HT-22 cells assessed as maximal effect of CLK1 exon 4 inclusion measured after 3 hrs by qPCR analysis. The format is functional, cell-based. A general note: Quantitative PCR measures a nucleic acid by following its amplification.
In series [4] the test system is HT-22. The note with it: Mus musculus, filed as modulator, dose 10.0 µM, time 6.0 hrs.
In series [5] the test system is HT-22. As to the kind of experiment: Neuroprotective activity against glutamate-induced cell death in mouse HT-22 cells treated for 24 hrs by MTS assay. The class given is functional, cell-based. The note with it: HT-22, 24 h. A general note: Tetrazolium dyes change colour on reduction, which living cells bring about.
Series [6] deals with HT-22. The series is described as follows: Neuroprotective activity against glutamate-induced cell death in mouse HT-22 cells at 10 uM incubated for 24 hrs by phase contrast microscopy. The class given is functional, cell-based.
The subject of series [7] is Mus musculus. The series is described as follows: Reduction in phosphorylated Tau Thr212 residue in Tg(Dyrk1a) mutant C57BL/6J mouse brain dosed at 20 mg/kg/day, ip for 19 days by western blot analysis. The format is functional, organism-based. The note with it: time 19.0 day.
Series [8] has as its system U2OS. As to the kind of experiment: Induction of PI3K/mTor-dependent autophagy in human U2OS cells assessed as number of LC3 foci per cell at 10 uM measured after 4 hrs. The format is cell-based. The settings on record: filed as activator.
Series [9] deals with HT-22. The series is described as follows: Modulation of CLK1 pre-mRNA splicing in mouse HT-22 cells assessed as inclusion of CLK1 exon 4 by measuring change in threshold cycle at 10 uM measured after 4 hrs by real time PCR analysis. The class given is cell-based. The settings on record: filed as modulator.
In series [10] the target is Casein kinase 2 (Homo sapiens, UniProt P67870+P68400+P19784+Q8NEV1). As to the kind of experiment: Inhibition of human recombinant CK2 using RRRDDDSDDD peptide as substrate incubated for 30 mins in presence of ATP by scintillation counting method. The class given is protein assay.
The nature of series [11]: Neurotoxicity against mouse HT-22 cells assessed as cell survival treated for 24 hrs by MTS assay. The class given is toxicity, cell-based.
In series [12] the target is T1, Cannabinoid receptor 1. The series is described as follows: Antagonist activity at CP-55940-activated CB1 receptor (unknown origin) at 10 uM by beta-arrestin assay relative to control. The class given is functional. Also noted: scale not given: the % may be the effect or the level left. The settings on record: filed as antagonist.
Series [13] addresses Glycogen synthase kinase-3 (Sus scrofa, UniProt B2LUN4+I6LNT8). The series is described as follows: Inhibition of porcine brain GSK-3alpha/beta using YRRAAVPPSPSLSRHSSPHQpSEDEEE as substrate incubated for 30 mins in presence of ATP by scintillation counting method. The class given is tissue-based.
Series [14] deals with T1, Cannabinoid receptor 1. The series is described as follows: […] allosteric modulation of CB1 receptor (unknown origin) expressed in HEK293 cell membrane assessed as inhibition of CP-55940-induced [35S]-GTPgammaS binding at 10 uM in presence of GDP by liquid scintillation counting method. The format is functional, cell membranes. The settings on record: DDE = dose-dependent effect.

The nature of series [15]: Neurotoxicity against mouse HT-22 cells assessed as cell survival at 20 uM treated for 24 hrs by MTS assay. The settings on record: ht-22, 24 h. The class given is toxicity, cell-based.
Series [16] in a line: Reduction in phosphorylated Tau Thr212 residue in wild-type C57BL/6J mouse brain dosed at 20 mg/kg/day, ip for 19 days by western blot analysis. The settings on record: in vivo, 456 h, time 19 day. The class given is toxicity, organism-based.
Series [17] concerns HT-22. The series is described as follows: Induction of PI3K/mTor-dependent autophagy in mouse HT-22 cells assessed as number of LC3 foci per cell at 10 uM incubated for 24 hrs using Lamp-1 staining based immunofluorescence microscopy. The note with it: filed as activator.
Series [18] has as its target T2, Dual specificity tyrosine-phosphorylation-regulated kinase 3 (Homo sapiens, UniProt O43781).
T2 sequence (O43781 whole entry): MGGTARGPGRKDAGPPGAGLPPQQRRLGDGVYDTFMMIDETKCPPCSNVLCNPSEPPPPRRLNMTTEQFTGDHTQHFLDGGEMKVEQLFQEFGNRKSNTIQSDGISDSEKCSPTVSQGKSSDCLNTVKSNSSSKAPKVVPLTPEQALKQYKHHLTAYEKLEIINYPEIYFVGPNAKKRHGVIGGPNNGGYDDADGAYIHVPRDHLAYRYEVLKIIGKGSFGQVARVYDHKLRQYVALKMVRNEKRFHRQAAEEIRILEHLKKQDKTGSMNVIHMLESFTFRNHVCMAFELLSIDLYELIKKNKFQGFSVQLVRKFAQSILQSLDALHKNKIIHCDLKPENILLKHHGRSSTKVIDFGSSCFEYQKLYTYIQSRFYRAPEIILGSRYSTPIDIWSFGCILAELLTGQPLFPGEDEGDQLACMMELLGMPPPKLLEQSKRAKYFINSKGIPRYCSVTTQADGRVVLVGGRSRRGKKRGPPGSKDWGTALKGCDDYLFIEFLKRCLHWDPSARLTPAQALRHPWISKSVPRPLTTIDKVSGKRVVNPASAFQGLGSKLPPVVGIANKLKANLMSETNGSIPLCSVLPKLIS
The series is described as follows: Inhibition of GST-fused human recombinant DYRK3 expressed in Escherichia coli using GRSRSRSRSRSR peptide as substrate incubated for 30 mins in presence of ATP by scintillation counting method.

For series [19], the target named is T3, Dual specificity tyrosine-phosphorylation-regulated kinase 2 (Homo sapiens, UniProt Q92630).
T3 sequence (Q92630 whole entry): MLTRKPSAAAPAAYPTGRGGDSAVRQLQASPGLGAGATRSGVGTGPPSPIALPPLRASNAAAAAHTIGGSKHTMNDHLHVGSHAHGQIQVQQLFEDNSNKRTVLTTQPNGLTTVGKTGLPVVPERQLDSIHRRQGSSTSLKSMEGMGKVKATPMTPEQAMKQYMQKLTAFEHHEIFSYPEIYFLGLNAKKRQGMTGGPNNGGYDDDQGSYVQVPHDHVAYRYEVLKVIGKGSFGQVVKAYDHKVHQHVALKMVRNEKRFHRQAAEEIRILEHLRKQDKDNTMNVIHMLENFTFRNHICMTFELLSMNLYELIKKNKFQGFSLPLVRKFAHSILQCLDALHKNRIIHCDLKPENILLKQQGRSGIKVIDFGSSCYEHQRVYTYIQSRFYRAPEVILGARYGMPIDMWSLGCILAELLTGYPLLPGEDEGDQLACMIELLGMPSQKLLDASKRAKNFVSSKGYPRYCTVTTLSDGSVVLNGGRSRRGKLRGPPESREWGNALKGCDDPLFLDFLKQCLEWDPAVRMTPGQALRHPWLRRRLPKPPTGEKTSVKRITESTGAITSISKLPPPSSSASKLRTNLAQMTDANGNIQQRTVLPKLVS
As to the kind of experiment: Inhibition of GST-fused human recombinant DYRK2 expressed in Escherichia coli using GRSRSRSRSRSR peptide as substrate incubated for 30 mins in presence of ATP by scintillation counting method.

Series [20] has as its target Dual specificity protein kinase CLK2 (Mus musculus, UniProt O35491). As to the kind of experiment: Inhibition of mouse recombinant GST-fused CLK2 expressed in Escherichia coli using GRSRSRSRSRSR peptide as substrate incubated for 30 mins in presence of ATP by scintillation counting method.
Series [21] concerns the target Dual specificity tyrosine-phosphorylation-regulated kinase 1B (Homo sapiens, UniProt Q9Y463).
Series [22] has as its target T1, Cannabinoid receptor 1. As to the kind of experiment: Antagonist activity at CP-55940-activated CB1 receptor (unknown origin) by beta-arrestin assay. The class given is functional.
Series [23] deals with Dual specificity protein kinase CLK1 (Mus musculus, UniProt P22518). The series is described as follows: Inhibition of GST-fused mouse recombinant CLK1 expressed in Escherichia coli using GRSRSRSRSRSR peptide as substrate incubated for 30 mins in presence of ATP by scintillation counting method.
Chain of Dual specificity protein kinase CLK1 (P22518 whole entry, the tested form may be a part): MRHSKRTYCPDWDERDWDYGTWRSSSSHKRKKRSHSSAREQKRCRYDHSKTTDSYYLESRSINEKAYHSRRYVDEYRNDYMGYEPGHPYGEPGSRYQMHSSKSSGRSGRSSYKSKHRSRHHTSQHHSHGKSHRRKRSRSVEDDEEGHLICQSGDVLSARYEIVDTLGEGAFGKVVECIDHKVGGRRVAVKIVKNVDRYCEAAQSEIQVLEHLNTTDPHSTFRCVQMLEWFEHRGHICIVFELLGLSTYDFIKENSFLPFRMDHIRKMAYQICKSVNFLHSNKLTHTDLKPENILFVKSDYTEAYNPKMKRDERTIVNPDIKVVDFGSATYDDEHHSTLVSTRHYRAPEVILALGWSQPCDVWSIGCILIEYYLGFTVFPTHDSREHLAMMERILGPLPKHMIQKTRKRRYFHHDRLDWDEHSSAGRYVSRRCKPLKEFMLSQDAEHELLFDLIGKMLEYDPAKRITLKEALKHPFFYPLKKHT
Series [24] has as its target Dual specificity protein kinase CLK4 (Mus musculus, UniProt O35493). The series is described as follows: Inhibition of GST-fused mouse recombinant CLK4 expressed in Escherichia coli using GRSRSRSRSRSR peptide as substrate incubated for 30 mins in presence of ATP by scintillation counting method.
A short description of series [25]: Neurotoxicity against mouse HT-22 cells assessed as cell survival at 10 uM treated for 24 hrs by MTS assay. The format is toxicity, cell-based. The note with it: ht-22, 24 h.
The target in series [26] is Serine/threonine-protein kinase pim-1 (Homo sapiens, UniProt P11309). The series is described as follows: Inhibition of human recombinant Pim1 expressed in Escherichia coli using histone H1 as substrate incubated for 30 mins in presence of ATP by scintillation counting method.
Chain of Serine/threonine-protein kinase pim-1 (P11309 whole entry, the tested form may be a part): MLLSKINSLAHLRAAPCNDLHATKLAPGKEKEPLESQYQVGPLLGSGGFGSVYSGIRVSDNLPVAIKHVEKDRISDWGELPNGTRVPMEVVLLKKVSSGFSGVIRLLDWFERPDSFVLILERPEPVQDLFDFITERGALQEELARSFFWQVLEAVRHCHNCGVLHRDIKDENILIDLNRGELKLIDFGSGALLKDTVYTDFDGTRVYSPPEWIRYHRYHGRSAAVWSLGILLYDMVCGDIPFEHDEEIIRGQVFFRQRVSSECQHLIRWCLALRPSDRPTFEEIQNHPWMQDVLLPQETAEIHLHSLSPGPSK
For series [27], the target named is Dual specificity tyrosine-phosphorylation-regulated kinase 1A (Homo sapiens, UniProt Q13627). The series is described as follows: Inhibition of GST-fused human recombinant DYRK1A expressed in Escherichia coli using GRSRSRSRSRSR peptide as substrate incubated for 30 mins in presence of ATP by scintillation counting method.

Chain of Dual specificity protein kinase CLK2 (O35491 whole entry, the tested form may be a part): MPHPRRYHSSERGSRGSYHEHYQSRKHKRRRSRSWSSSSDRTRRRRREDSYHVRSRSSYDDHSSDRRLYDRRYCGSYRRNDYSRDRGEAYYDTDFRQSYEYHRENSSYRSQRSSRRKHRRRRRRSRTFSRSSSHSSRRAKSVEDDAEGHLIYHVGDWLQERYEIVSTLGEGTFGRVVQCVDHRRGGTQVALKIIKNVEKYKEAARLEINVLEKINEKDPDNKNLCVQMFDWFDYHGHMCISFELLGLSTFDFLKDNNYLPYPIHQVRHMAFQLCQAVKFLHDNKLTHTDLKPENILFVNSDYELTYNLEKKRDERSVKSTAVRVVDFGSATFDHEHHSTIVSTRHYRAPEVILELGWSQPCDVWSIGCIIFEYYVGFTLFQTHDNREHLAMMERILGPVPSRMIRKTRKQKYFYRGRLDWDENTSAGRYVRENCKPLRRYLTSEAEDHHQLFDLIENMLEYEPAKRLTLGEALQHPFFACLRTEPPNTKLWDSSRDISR
Chain of Dual specificity tyrosine-phosphorylation-regulated kinase 1B (Q9Y463 whole entry): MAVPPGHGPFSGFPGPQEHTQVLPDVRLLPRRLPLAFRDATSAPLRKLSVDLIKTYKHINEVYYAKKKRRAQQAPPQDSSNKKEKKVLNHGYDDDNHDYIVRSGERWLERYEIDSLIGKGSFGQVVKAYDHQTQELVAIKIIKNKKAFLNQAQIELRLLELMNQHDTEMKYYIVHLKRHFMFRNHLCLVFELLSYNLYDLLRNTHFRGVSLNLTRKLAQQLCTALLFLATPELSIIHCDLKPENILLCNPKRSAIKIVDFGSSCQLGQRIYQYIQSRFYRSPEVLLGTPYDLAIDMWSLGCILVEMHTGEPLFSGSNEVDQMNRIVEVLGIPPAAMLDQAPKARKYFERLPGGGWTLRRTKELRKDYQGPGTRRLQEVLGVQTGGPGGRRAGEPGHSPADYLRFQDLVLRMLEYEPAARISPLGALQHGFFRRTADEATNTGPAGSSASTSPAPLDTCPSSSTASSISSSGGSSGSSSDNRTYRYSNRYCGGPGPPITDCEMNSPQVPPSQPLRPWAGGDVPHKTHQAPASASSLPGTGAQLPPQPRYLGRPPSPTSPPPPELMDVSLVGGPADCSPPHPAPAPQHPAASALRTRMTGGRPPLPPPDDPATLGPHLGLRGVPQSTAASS
Chain of Dual specificity protein kinase CLK4 (O35493 whole entry, the tested form may be a part): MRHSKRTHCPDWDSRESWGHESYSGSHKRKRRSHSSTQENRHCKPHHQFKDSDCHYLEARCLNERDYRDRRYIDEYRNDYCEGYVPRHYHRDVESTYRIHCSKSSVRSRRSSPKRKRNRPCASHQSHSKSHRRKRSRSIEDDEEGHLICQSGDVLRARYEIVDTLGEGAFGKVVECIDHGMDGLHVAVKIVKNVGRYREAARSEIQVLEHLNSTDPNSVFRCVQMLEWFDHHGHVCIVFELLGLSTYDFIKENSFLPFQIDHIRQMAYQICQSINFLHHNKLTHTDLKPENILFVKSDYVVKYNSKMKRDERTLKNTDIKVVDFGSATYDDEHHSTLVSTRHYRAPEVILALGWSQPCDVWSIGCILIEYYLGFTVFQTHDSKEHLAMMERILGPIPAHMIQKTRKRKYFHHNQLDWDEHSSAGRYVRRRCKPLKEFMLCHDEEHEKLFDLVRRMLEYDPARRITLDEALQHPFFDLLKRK

As to `O=C1NC(Nc2ccccc2)=N/C1=C\c1ccc2c(c1)OCO2`, in series [1], the Kb is 2200 nM. For the same compound, the outcome in [2], in series [3], in series [6], in [7] and in series [17] was Active. The values for the deltaCT in series [4], in series [9] and in series [9] (tested as the 2H-labelled form) were 8.18, 8.18 and 7.71, respectively. The EC50 (commonly the concentration that produces a half-maximal response) in [5] came to 6020 nM. Also, the Activity is 11.6 in series [8]; 7.3 in series [8] (tested as the 2H-labelled form); 96.8% in series [12]; 92.7% in [12] (tested as the 2H-labelled form); “Dde” in series [14]; “Non-Toxic” in series [15]. The Activity result in [16] is reported as “Non-Toxic”. Further, the IC50 (usually the concentration that gives 50% inhibition) was found to be 510 nM in series [10] and 600 nM in series [13]. Besides, the concentration for half-maximal inhibition (IC50) at 24 h in series [11] is more than 20000 nM.
Take `COc1cc(/C=C2\N=C(Nc3ccc(N4CCCCC4)cc3)NC2=O)ccc1O`: the IC50 was 300 nM in series [18]; 410 nM in [19]; more than 10000 nM in [20]; 410 nM in series [21]; 297 nM in [22]; 750 nM in [23]. The IC50 was 1200 nM in series [24], more than 10000 nM in series [13], 6300 nM in [26] and 280 nM in series [27]. In [5], the half-maximal effective concentration (EC50) was found to be 1350 nM. The values for the Activity in series [8], in series [12] and in series [25] were 10.9, 84.1% and “Non-Toxic”, respectively.
